From ChEMBL document CHEMBL4229500, “Iodine-mediated cyclization of cannabigerol (CBG) expands the cannabinoid biological and chemical space” (Bioorg Med Chem, 2018)

Tests used:
Format in all cases: cell-based
[1] = target: Transient receptor potential cation channel subfamily V member 4 (Rattus norvegicus) (UniProt Q9ERZ8); assay: Agonist activity at rat TRPV4 expressed in HEK293 cells assessed as increase in intracellular calcium level by Fluo-4-AM dye based fluorescence assay relative to ionomycin
Chain of Transient receptor potential cation channel subfamily V member 4 (Rattus norvegicus) (Q9ERZ8 whole entry): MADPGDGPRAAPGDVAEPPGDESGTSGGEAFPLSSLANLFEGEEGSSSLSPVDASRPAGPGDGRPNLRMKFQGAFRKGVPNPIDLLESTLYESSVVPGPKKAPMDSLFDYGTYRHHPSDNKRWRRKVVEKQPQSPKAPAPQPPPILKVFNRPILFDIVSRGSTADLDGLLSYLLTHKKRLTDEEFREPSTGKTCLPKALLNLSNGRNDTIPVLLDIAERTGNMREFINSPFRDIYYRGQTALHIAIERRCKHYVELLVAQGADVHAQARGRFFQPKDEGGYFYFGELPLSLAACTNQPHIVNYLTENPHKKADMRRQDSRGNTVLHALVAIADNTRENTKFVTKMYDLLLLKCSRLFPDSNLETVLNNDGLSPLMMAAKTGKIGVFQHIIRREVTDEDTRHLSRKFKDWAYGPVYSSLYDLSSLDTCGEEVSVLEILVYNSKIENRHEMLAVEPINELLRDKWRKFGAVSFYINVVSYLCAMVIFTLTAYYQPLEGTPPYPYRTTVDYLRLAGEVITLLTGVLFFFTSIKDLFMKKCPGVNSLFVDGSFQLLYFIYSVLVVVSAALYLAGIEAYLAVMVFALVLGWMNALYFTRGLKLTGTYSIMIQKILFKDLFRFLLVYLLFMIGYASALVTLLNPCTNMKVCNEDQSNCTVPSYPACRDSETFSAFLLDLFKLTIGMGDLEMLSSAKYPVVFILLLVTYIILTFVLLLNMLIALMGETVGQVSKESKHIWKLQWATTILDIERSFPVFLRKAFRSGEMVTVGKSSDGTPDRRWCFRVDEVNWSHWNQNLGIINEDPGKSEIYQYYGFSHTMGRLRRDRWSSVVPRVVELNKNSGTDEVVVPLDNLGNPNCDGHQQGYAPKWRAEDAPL

[2] = target: T1, Transient receptor potential cation channel subfamily A member 1 (Rattus norvegicus, UniProt Q6RI86); assay: Agonist activity at rat TRPA1 expressed in HEK293 cells assessed as increase in intracellular calcium level by fluo-4-AM dye based fluorescence assay
T1 sequence (Q6RI86 whole entry): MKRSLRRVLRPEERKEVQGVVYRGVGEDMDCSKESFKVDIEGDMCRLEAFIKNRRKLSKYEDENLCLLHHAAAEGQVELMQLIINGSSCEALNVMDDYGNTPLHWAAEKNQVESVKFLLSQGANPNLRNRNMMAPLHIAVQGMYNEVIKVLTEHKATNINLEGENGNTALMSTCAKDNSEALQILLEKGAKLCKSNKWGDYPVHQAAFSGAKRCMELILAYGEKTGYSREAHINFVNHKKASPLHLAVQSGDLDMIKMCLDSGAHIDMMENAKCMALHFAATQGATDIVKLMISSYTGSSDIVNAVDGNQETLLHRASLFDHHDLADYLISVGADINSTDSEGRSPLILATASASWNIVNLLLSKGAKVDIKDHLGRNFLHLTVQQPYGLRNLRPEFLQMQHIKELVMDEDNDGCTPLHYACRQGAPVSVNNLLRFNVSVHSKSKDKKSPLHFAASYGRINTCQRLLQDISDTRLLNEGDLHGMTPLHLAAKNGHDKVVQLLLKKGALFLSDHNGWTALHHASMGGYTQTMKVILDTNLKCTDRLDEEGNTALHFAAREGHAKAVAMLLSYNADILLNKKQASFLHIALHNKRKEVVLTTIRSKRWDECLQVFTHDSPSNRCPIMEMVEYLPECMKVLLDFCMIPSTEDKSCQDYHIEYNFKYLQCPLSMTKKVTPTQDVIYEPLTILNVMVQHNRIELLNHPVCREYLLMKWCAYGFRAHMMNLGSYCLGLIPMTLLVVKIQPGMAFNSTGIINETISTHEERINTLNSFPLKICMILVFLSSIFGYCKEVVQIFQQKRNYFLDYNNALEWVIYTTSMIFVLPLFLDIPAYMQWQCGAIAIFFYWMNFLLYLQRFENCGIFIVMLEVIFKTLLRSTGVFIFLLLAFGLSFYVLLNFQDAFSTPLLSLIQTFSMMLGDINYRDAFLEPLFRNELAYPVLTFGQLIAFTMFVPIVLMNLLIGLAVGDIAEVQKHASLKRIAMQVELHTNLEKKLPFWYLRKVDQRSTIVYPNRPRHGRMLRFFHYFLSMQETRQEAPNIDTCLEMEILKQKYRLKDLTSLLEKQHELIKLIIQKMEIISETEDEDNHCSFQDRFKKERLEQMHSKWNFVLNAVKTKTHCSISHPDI

[3] = target: T2, Transient receptor potential cation channel, subfamily V, member 3 (Rattus norvegicus) (UniProt E9PU00); assay: Agonist activity at […] expressed in HEK293 cells assessed as increase in intracellular calcium level by Fluo-4-AM dye based fluorescence assay relative to ionomycin
T2 sequence (whole entry): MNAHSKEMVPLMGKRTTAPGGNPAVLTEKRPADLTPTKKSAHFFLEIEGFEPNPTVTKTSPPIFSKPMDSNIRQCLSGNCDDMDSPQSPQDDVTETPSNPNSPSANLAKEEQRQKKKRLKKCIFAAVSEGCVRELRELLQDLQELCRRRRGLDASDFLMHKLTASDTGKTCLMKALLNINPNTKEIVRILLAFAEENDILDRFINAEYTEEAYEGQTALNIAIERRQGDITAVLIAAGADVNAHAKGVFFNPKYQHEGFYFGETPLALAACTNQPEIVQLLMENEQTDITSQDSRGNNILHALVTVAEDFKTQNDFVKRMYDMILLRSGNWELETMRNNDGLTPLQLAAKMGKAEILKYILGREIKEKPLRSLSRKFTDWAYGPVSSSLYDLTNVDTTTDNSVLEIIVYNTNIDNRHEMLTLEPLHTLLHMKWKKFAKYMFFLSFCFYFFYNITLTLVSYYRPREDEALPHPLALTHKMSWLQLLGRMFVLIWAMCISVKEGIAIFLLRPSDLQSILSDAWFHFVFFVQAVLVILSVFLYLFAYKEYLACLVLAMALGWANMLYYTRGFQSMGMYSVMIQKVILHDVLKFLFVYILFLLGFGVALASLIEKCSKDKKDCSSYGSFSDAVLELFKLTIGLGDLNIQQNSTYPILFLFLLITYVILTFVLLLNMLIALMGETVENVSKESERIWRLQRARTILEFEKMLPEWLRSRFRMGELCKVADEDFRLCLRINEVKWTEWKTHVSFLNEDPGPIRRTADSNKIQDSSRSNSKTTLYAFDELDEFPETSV

[4] = target: T3, Transient receptor potential cation channel subfamily V member 1 (Homo sapiens, UniProt Q8NER1); assay: Agonist activity at human TRPV1 expressed in HEK293 cells assessed as increase in intracellular calcium level by Fluo-4-AM dye based fluorescence assay relative to ionomycin
T3 sequence (Q8NER1 whole entry): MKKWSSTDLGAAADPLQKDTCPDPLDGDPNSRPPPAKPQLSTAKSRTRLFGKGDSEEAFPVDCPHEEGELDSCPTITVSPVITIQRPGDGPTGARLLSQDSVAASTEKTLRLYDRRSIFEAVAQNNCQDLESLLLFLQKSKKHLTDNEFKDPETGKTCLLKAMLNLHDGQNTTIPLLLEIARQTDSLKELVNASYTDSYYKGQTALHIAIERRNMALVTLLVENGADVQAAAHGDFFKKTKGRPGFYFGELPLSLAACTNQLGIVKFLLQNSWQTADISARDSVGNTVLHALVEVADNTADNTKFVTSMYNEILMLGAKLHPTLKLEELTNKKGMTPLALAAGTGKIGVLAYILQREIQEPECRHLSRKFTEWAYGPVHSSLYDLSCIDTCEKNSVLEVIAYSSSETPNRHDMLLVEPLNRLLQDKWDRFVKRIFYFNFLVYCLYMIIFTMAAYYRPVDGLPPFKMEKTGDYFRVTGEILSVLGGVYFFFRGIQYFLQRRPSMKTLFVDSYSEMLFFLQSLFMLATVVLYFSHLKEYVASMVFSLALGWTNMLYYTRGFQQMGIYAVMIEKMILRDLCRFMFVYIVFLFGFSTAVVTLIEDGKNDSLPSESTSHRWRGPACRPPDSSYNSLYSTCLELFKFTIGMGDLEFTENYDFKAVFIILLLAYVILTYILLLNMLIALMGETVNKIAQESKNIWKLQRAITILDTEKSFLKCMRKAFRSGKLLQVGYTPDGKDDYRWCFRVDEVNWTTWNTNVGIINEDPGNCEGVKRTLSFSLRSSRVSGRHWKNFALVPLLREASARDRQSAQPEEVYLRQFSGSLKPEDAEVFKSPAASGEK

[5] = target: T4, Transient receptor potential cation channel, subfamily V, member 3 (Rattus norvegicus, UniProt E9PU00); assay: Agonist activity at […] expressed in HEK293 cells assessed as increase in intracellular calcium level by Fluo-4-AM dye based fluorescence assay
T4 sequence (E9PU00 whole entry): T2 sequence (whole entry)

[6] = target: Transient receptor potential cation channel subfamily A member 1 (Rattus norvegicus) (UniProt Q6RI86); assay: Agonist activity at rat TRPA1 expressed in HEK293 cells assessed as increase in intracellular calcium level by fluo-4-AM dye based fluorescence assay relative to AITC
Chain of Transient receptor potential cation channel subfamily A member 1 (Rattus norvegicus) (Q6RI86 whole entry): as the sequence (Q6RI86 whole entry) above

[7] = target: T5, Transient receptor potential cation channel subfamily V member 2 (Rattus norvegicus) (UniProt Q9WUD2); assay: Agonist activity at rat TRPV2 expressed in HEK293 cells assessed as increase in intracellular calcium level by Fluo-4-AM dye based fluorescence assay relative to ionomycin
T5 sequence (whole entry): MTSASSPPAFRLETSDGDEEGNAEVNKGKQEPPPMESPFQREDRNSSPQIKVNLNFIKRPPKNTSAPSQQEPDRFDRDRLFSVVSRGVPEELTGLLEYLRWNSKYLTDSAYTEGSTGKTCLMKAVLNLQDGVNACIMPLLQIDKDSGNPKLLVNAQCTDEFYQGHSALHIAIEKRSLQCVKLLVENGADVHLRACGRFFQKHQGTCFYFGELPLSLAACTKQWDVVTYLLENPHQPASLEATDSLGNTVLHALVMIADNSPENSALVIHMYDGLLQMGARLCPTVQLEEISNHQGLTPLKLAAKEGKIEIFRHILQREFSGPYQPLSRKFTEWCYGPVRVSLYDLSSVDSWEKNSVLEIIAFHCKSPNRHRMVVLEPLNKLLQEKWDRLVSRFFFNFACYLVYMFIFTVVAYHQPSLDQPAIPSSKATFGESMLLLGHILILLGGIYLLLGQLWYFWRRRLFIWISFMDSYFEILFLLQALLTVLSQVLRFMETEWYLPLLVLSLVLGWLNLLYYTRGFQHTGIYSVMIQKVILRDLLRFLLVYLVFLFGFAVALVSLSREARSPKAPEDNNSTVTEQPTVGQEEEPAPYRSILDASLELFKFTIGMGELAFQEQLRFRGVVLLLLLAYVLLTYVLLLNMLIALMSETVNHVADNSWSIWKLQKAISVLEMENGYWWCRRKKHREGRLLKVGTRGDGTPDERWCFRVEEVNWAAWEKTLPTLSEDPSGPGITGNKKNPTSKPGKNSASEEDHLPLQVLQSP

[8] = target: T3, Transient receptor potential cation channel subfamily V member 1; assay: Antagonist activity at human TRPV1 expressed in HEK293 cells assessed as inhibition of capsaicin-induced increase in intracellular calcium level pretreated for 5 mins followed by capsaicin addition by Fluo-4-AM dye based fluorescence assay
[9] = target: T6, Transient receptor potential cation channel subfamily V member 2 (Rattus norvegicus, UniProt Q9WUD2); assay: Agonist activity at rat TRPV2 expressed in HEK293 cells assessed as increase in intracellular calcium level by Fluo-4-AM dye based fluorescence assay
T6 sequence (Q9WUD2 whole entry): T5 sequence (whole entry)

[10] = target: T4, Transient receptor potential cation channel, subfamily V, member 3; assay: Antagonist activity at […] expressed in HEK293 cells assessed as inhibition of thymol-induced increase in intracellular calcium level pretreated for 5 mins followed by thymol addition by Fluo-4-AM dye based fluorescence assay
[11] = target: Transient receptor potential cation channel subfamily M member 8 (Rattus norvegicus, UniProt Q8R455); assay: Antagonist activity at rat TRPM8 expressed in HEK293 cells assessed as inhibition of icilin-induced increase in intracellular calcium level pretreated for 5 mins followed by icilin addition by Fluo-4-AM dye based fluorescence assay
Chain of Transient receptor potential cation channel subfamily M member 8 (Q8R455 whole entry): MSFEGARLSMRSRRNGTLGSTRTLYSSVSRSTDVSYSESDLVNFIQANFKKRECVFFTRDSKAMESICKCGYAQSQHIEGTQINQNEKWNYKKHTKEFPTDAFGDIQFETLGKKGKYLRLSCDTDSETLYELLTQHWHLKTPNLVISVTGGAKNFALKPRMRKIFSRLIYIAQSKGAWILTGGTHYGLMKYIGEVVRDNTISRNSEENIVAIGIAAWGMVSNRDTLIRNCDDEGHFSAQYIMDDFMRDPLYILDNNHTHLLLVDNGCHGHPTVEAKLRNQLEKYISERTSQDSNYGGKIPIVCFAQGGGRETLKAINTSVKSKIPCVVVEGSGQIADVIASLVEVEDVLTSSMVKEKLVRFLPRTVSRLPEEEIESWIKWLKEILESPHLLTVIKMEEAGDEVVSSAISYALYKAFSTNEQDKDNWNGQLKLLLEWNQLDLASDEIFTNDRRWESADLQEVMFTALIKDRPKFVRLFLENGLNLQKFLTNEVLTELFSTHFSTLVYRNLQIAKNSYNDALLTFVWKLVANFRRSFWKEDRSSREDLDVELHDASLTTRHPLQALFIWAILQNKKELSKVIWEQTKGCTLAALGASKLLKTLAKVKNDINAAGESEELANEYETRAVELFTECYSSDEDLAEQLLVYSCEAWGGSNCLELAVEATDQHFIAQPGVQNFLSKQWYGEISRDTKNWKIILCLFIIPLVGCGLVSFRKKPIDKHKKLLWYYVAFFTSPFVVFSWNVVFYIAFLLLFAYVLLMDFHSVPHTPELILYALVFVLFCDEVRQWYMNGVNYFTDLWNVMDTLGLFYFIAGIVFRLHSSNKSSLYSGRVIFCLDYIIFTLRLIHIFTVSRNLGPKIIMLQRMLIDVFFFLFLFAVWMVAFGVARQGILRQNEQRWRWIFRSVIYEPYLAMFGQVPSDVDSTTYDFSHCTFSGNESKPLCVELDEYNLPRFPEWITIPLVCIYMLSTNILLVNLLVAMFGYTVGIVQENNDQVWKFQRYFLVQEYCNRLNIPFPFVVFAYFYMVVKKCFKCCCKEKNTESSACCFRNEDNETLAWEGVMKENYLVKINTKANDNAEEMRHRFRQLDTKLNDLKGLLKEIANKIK

[12] = target: T7, Transient receptor potential cation channel subfamily V member 4 (Rattus norvegicus, UniProt Q9ERZ8); assay: Agonist activity at rat TRPV4 expressed in HEK293 cells assessed as increase in intracellular calcium level by Fluo-4-AM dye based fluorescence assay
T7 sequence (Q9ERZ8 whole entry): as the sequence (Q9ERZ8 whole entry) above

[13] = target: T7, Transient receptor potential cation channel subfamily V member 4; assay: Antagonist activity at […] expressed in HEK293 cells assessed as inhibition of GSK1016790A-induced increase in intracellular calcium level pretreated for 5 mins followed by GSK1016790A addition by Fluo-4-AM dye based fluorescence assay
[14] = target: T1, Transient receptor potential cation channel subfamily A member 1; assay: Antagonist activity at rat TRPA1 expressed in HEK293 cells assessed as inhibition of AITC-induced increase in intracellular calcium level pretreated for 5 mins followed by AITC addition by fluo-4-AM dye based fluorescence assay
[15] = target: T6, Transient receptor potential cation channel subfamily V member 2; assay: Antagonist activity at rat TRPV2 expressed in HEK293 cells assessed as inhibition of LPC-induced increase in intracellular calcium level pretreated for 5 mins followed by LPC addition by Fluo-4-AM dye based fluorescence assay
[16] = target: T3, Transient receptor potential cation channel subfamily V member 1; assay: Agonist activity at human TRPV1 expressed in HEK293 cells assessed as increase in intracellular calcium level by Fluo-4-AM dye based fluorescence assay

| Compound | Efficacy [1] | EC50 [2] | Efficacy [3] | Efficacy [4] | EC50 ([5]; hek293) | Efficacy [6] | Efficacy [7] | IC50 [8] | EC50 ([9]; read-out: EC50) | IC50 [10] | IC50 [11] | EC50 ([12]; hek293) | IC50 [13] | IC50 [14] | IC50 [15] | EC50 ([16]; hek293) | EC50 ([16]; read-out: EC50) | EC50 ([9]; hek293) | EC50 ([12]; read-out: EC50) | EC50 ([5]; read-out: EC50) |
| --- | --- | --- | --- | --- | --- | --- | --- | --- | --- | --- | --- | --- | --- | --- | --- | --- | --- | --- | --- | --- |
| CCCCCc1cc(O)c2c(c1)O[C@]1(C)CCCC(C)(C)[C@H]1C2 | < 10% | 0.23 µM | < 10% | < 10% | Not Active | 95.2% | 41.3% | > 100 µM | 8.4 µM | > 50 µM | > 100 µM | Not Active | > 100 µM | 0.26 µM | > 100 µM | Not Active | – | – | – | – |
| CCCCCc1cc(O)c2c(c1)O[C@]1(C2)[C@H](C)CCCC1(C)C | < 10% | 1.3 µM | < 10% | 32.3% | Not Active | 102% | 27.5% | 37 µM | 6.4 µM | > 50 µM | > 50 µM | Not Active | 39.7 µM | 1.7 µM | > 50 µM | – | 4.9 µM | – | – | – |
| CCCCCc1cc(O)c2c(c1)OC(C)(CCCC(C)(C)c1ccc(C)cc1)CC2 (stereo unspecified) | 18% | 0.35 µM | < 10% | < 10% | Not Active | 120% | < 10% | > 50 µM | – | > 50 µM | > 100 µM | – | > 100 µM | 0.32 µM | 4.5 µM | Not Active | – | Not Active | 18 µM | – |
| CCCCCc1cc(O)c2c(c1)O[C@]1(C2)[C@@H](C)CCCC1(C)C | 13.9% | 0.49 µM | < 10% | 43.9% | Not Active | 108% | 37.7% | 7.1 µM | 4.7 µM | 12.8 µM | > 50 µM | – | 4.3 µM | 0.45 µM | 13.7 µM | – | 1.8 µM | – | 3.3 µM | – |
| CCCCCc1cc(O)c2c(c1)O[C@@]1(C)CCCC(C)(C)[C@H]1C2 | < 10% | 0.29 µM | 17.5% | 48.5% | – | 98.5% | 31.7% | 5.9 µM | 5.8 µM | 8 µM | 17.1 µM | Not Active | 3.9 µM | 0.27 µM | > 100 µM | – | 2.6 µM | – | – | 6.7 µM |
| CCCCCc1cc(O)c2c(c1)O[C@]1(C)CC[C@@H](I)C(C)(C)[C@H]1C2 | < 10% | 2 µM | < 10% | < 10% | Not Active | 90% | < 10% | > 100 µM | – | > 50 µM | 7.2 µM | Not Active | > 100 µM | 4.8 µM | 2.3 µM | Not Active | – | Not Active | – | – |
